The target of the test is T1, human mAChR M4 (Homo sapiens, UniProt P08173).
T1 construct: expressed in transfected cells; host or cells: CHO-K1 (ATCC), stably expressing hM4 and Gqi5
T1 sequence (P08173 1-479): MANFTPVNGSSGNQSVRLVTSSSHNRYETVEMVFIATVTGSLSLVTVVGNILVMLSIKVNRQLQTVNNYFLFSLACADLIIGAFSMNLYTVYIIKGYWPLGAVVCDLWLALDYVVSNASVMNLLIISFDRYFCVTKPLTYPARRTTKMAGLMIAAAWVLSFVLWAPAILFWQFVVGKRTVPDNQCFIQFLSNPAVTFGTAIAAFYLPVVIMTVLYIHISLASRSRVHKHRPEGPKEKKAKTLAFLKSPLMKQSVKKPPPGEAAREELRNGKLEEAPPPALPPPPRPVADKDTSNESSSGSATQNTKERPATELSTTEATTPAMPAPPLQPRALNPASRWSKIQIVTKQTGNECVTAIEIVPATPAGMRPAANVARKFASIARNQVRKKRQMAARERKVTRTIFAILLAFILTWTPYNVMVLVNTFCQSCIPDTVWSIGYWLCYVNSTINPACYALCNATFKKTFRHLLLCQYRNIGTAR
In words: mAChR M4 cell-based functional assay: calcium flux (Fluo-4, FDSS), positive allosteric modulator activity on the EC20 acetylcholine response, hM4-Gqi5 CHO-K1 cells. As to conditions: for Emax at 30 µM: CHO-K1, human M4, % ACh maximum at 30 μM; for EC50: human M4, PAM activity on EC20 acetylcholine response, calcium flux, read-out: Human M4 EC50. As for the experimental part: Human M4 cDNA, along with the chimeric G protein Gqi5, were transfected into Chinese hamster ovary (CHO-K1) cells purchased from the American Type Culture Collection using commercially available Lipofectamine 2000 transfection reagent (Dalby, B. et al., Methods (2004) 33(2), 95-103). hM4-Gqi5 cells were grown in Ham's F-12 medium containing 10% heat-inactivated fetal bovine serum (FBS), 20 mM […], 50 μg/mL G418 sulfate (CAS #108321-42-2), and 500 μg/mL Hygromycin B. rM4-Gqi5 cells were grown in DMEM containing 10% heat-inactivated FBS, 20 mM HEPES, 400 μg/mL G418 sulfate, and 500 μg/mL Hygromycin B.
For high throughput measurement of agonist-evoked increases in intracellular calcium, CHO-K1 cells stably expressing muscarinic receptors were plated in growth medium lacking G418 sulfate and hygromycin at 15,000 cells/20 μL/well in Greiner 384-well black-walled, tissue culture (TC)-treated, clear-bottom plates (VWR). Cells were incubated overnight at 37° C. and 5% C02. The next day, cells were washed using an ELX 405 (BioTek) with assay buffer; the final volume was then aspirated to 20 μL. Next, 20 μL of a 2.3 μM stock of Fluo-4/acetoxymethyl ester (Invitrogen, Carlsbad, CA), prepared as a 2.3 mM stock in DMSO and mixed in a 1:1 ratio with 10% (w/v) Pluronic F-127 and diluted in assay buffer, was added to the wells and the cell plates were incubated for 50 minutes at 37° C. and 5% C02. Dye was removed by washing with the ELX 405 and the final volume was aspirated to 20 μL. Compound master plates were formatted in an 11 point concentration-response curve (CRC) format (1:3 dilutions) in 100% DMSO with a starting concentration of 10 mM using a BRAVO liquid handler (Agilent). Test compound CRCs were then transferred to daughter plates (240 nL) using the Echo acoustic plate reformatter (Labcyte, Sunnyvale, CA) and then diluted into assay buffer (40 μL) to a 2× stock using a Thermo Fisher Combi (Thermo Fisher Scientific, Waltham, MA).
Calcium flux was measured using the Functional Drug Screening System (FDSS) 6000 or 7000 (Hamamatsu Corporation, Tokyo, Japan) as an increase in the fluorescent static ratio. Compounds were applied to cells (20 μL, 2×) using the automated system of the FDSS at 2-4 seconds into the protocol and the data were collected at 1 Hz. At 144 seconds, 10 μL of an EC20 concentration of the muscarinic receptor agonist acetylcholine was added (5×), followed by the addition of 12 μL of an EC80 concentration of acetylcholine at the 230 second time point (5×). Agonist activity was analyzed as a concentration-dependent increase in calcium mobilization upon compound addition. Positive allosteric modulator activity was analyzed as a concentration-dependent increase in the EC20 acetylcholine response. With the acetylcholine EC20 set as baseline, the test compound EC50 is determined as the concentration that produces an increase above baseline of 50% of the maximum increase in acetylcholine response elicted by the test compound. Antagonist activity was analyzed as a concentration-dependent decrease in the ECso acetylcholine response. Concentration-response curves were generated using a four-parameter logistical equation in XLFit curve fitting software (IDBS, Bridgewater, NJ) for Excel (Microsoft, Redmond, WA) or Prism (GraphPad Software, Inc., San Diego, CA).
Compounds were synthesized as described above. Activity (EC50 and Emax) was determined in the mAChR M4 cell-based functional assay as described above and the data are shown in Table 4. The compound numbers correspond to the compound numbers used in Examples 1-33 and Tables 1, 2, and 3.

One may read the Emax as the greatest response seen or fitted, relative to the assay's reference. As usually defined, the EC50 is the concentration at which the effect is half-maximal. Take `Fc1ccc2ncnc(N3CCc4ncc(-c5ccnn5C5COC5)cc4C3)c2c1` [Compound 265, 6-fluoro-4-(3-(1-(oxetan-3-yl)-1H-pyrazol-5-yl)-7,8-dihydro-1,6-naphthyridin-6(5H)-yl)quinazoline]: the Emax at 30 µM is 76% and the EC50 came to 500 nM.

For the compound `Fc1cc2ncnc(N3CCc4ncc(Oc5ccccc5F)cc4C3)c2cc1F` [Compound 158, 6,7-difluoro-4-[3-(2-fluorophenoxy)-7,8-dihydro-5H-1,6-naphthyridin-6-yl]quinazoline], the Emax at 30 µM worked out at 80% and the EC50 is 270 nM.

`Cc1nc(N2Cc3cc(C(F)(F)F)cnc3CC2C)c2cc(F)ccc2n1` (stereo not drawn) [Compound 156, 6-fluoro-2-methyl-4-[7-methyl-3-(trifluoromethyl)-7,8-dihydro-5H-1,6-naphthyridin-6-yl]quinazoline]: the Emax at 30 µM amounted to 99% and the EC50 is 220 nM.

Take `Cc1cn(C)nc1-c1cnc2c(c1)CN(c1nc(C(F)(F)F)nc3ccc(F)cc13)CC2` [Compound 64, 4-[3-(1,4-dimethylpyrazol-3-yl)-7,8-dihydro-5H-1,6-naphthyridin-6-yl]-6-fluoro-2-(trifluoromethyl)quinazoline]: the Emax at 30 µM is 69% and the EC50 is 510 nM.

Regarding `Fc1ccc2ncnc(N3CCc4ncc(N5CCCn6nccc65)cc4C3)c2c1` [Compound 74, 4-[3-(6,7-dihydro-5H-pyrazolo[1,5-a]pyrimidin-4-yl)-7,8-dihydro-5H-1,6-naphthyridin-6-yl]-6-fluoro-quinazoline], the Emax at 30 µM amounted to 82% and the EC50 was 10 nM.

As to `Clc1nc(N2CCc3ncc(N4CCOc5ncccc54)cc3C2)c2cccnc2n1` [Compound 95, 1-[6-(2-chloropyrido[2,3-d]pyrimidin-4-yl)-7,8-dihydro-5H-1,6-naphthyridin-3-yl]-2,3-dihydropyrido[2,3-b][1,4]oxazine], the Emax at 30 µM was determined as 78% and the EC50 is 420 nM.

Turning to `Fc1ccc2nc(Oc3ccccc3F)nc(N3CCc4ncc(C(F)(F)F)cc4C3)c2c1` [Compound 199, 6-fluoro-2-(2-fluorophenoxy)-4-[3-(trifluoromethyl)-7,8-dihydro-5H-1,6-naphthyridin-6-yl]quinazoline], the Emax at 30 µM came to 96% and the EC50 was found to be 3370 nM.

For `Fc1ccc2nc(Cl)nc(N3CCc4ncc(Br)cc4C3)c2c1` [Compound 150, 4-(3-bromo-7,8-dihydro-5H-1,6-naphthyridin-6-yl)-2-chloro-6-fluoro-quinazoline], the Emax at 30 µM worked out at 105% and the EC50 amounted to 100 nM.

With `Cc1ccc2ncnc(N3CCc4ncc(C5CC5)cc4C3)c2c1` [Compound 160, 4-(3-cyclopropyl-7,8-dihydro-5H-1,6-naphthyridin-6-yl)-6-methyl-quinazoline], the Emax at 30 µM amounted to 90% and the EC50 amounted to 30 nM.

In the case of `Fc1ccc2ncnc(N3CCc4ncc(Cc5ccccc5F)cc4C3)c2c1` [Compound 164, 6-fluoro-4-[3-[(2-fluorophenyl)methyl]-7,8-dihydro-5H-1,6-naphthyridin-6-yl]quinazoline], the Emax at 30 µM was determined as 75% and the EC50 was found to be 590 nM.

`Cc1nc(N2CCc3ncc(-c4ccc(C5CC5)nc4)cc3C2)c2cc(Cl)ccc2n1` [Compound 50, 6-chloro-4-[3-(6-cyclopropyl-3-pyridyl)-7,8-dihydro-5H-1,6-naphthyridin-6-yl]-2-methyl-quinazoline]: the Emax at 30 µM was found to be 83% and the EC50 was 1070 nM.

As for `C[C@@H]1CN(c2cnc3c(c2)CN(c2ncnc4cc(F)c(F)cc24)CC3)CCO1` [Compound 241, (R)-4-(6-(6,7-difluoroquinazolin-4-yl)-5,6,7,8-tetrahydro-1,6-naphthyridin-3-yl)-2-methylmorpholine], the Emax at 30 µM was 77% and the EC50 stood at 80 nM.

With `Cc1nc(N2CCc3ncc(-c4cnn(C5CC5)c4)cc3C2)c2cc(Cl)ccc2n1` [Compound 19, 6-chloro-4-[3-(1-cyclopropylpyrazol-4-yl)-7,8-dihydro-5H-1,6-naphthyridin-6-yl]-2-methyl-quinazoline], the Emax at 30 µM is 80% and the EC50 is 390 nM.

As to `Cc1nc(N2CCc3ncc(-c4cnc(F)cc4C)cc3C2)c2cc(F)ccc2n1` [Compound 305, 6-fluoro-4-(3-(6-fluoro-4-methylpyridin-3-yl)-7,8-dihydro-1,6-naphthyridin-6(5H)-yl)-2-methylquinazoline], the Emax at 30 µM was determined as 92% and the EC50 was 130 nM.

Regarding `Cc1nc(N2CCc3ncc(C(F)(F)F)cc3C2)c2ccccc2n1` [Compound 138, 2-methyl-4-[3-(trifluoromethyl)-7,8-dihydro-5H-1,6-naphthyridin-6-yl]quinazoline], the Emax at 30 µM was 82% and the EC50 came out at 480 nM.

On to `Cc1nn(C)cc1-c1cnc2c(c1)CN(c1nc(Cl)nc3ccc(Cl)cc13)CC2` [Compound 28, 2,6-dichloro-4-[3-(1,3-dimethylpyrazol-4-yl)-7,8-dihydro-5H-1,6-naphthyridin-6-yl]quinazoline], for which the Emax at 30 µM stood at 103% and the EC50 is 570 nM.

For the compound `Cn1nc(C(F)(F)F)cc1-c1cnc2c(c1)CN(c1ncnc3ccc(F)cc13)CC2` [Compound 267, 6-fluoro-4-(3-(1-methyl-3-(trifluoromethyl)-1H-pyrazol-5-yl)-7,8-dihydro-1,6-naphthyridin-6(5H)-yl)quinazoline], the Emax at 30 µM came to 81% and the EC50 was determined as 200 nM.

Take `Cc1ccc(-c2cnc3c(c2)CN(c2ncnc4cc(F)c(F)cc24)CC3)cn1` [Compound 53, 6,7-difluoro-4-[3-(6-methyl-3-pyridyl)-7,8-dihydro-5H-1,6-naphthyridin-6-yl]quinazoline]: the Emax at 30 µM was 84% and the EC50 turned out to be 130 nM.

For the compound `Cc1nc(N2CCc3ncc(C(F)(F)F)cc3C2)c2cc(F)c(C)cc2n1` [Compound 172, 6-fluoro-2,7-dimethyl-4-[3-(trifluoromethyl)-7,8-dihydro-5H-1,6-naphthyridin-6-yl]quinazoline], the maximal effect (Emax) at 30 µM worked out at 81% and the EC50 was 810 nM.

With `Cc1nc(N2CCc3ncc(-c4cnc(C)s4)cc3C2)c2cc(Cl)ccc2n1` [Compound 48, 5-[6-(6-chloro-2-methyl-quinazolin-4-yl)-7,8-dihydro-5H-1,6-naphthyridin-3-yl]-2-methyl-thiazole], the Emax at 30 µM came to 92% and the EC50 is 270 nM.

With `Cc1ccc2nc(C)nc(N3CCc4ncc(-c5cc(F)ccc5C)cc4C3)c2c1` [Compound 317, 4-(3-(5-fluoro-2-methylphenyl)-7,8-dihydro-1,6-naphthyridin-6(5H)-yl)-2,6-dimethylquinazoline], the maximal response (Emax) at 30 µM worked out at 91% and the EC50 was 2800 nM.
